The record followed here is PMC6211253, “Design of selective COX-2 inhibitors in the (aza)indazole series. Chemistry, in vitro studies, radiochemistry and evaluations in rats of a [^18F] PET tracer” (Journal of Enzyme Inhibition and Medicinal Chemistry, 2018).

For one series, the target named is T1, COX-2 (Rattus norvegicus, UniProt P35355).
T1 construct: from tissue; host or cells: brain regions of QA-lesioned Wistar rats (in vivo injection, ex vivo counting)
T1 sequence (P35355 18-604): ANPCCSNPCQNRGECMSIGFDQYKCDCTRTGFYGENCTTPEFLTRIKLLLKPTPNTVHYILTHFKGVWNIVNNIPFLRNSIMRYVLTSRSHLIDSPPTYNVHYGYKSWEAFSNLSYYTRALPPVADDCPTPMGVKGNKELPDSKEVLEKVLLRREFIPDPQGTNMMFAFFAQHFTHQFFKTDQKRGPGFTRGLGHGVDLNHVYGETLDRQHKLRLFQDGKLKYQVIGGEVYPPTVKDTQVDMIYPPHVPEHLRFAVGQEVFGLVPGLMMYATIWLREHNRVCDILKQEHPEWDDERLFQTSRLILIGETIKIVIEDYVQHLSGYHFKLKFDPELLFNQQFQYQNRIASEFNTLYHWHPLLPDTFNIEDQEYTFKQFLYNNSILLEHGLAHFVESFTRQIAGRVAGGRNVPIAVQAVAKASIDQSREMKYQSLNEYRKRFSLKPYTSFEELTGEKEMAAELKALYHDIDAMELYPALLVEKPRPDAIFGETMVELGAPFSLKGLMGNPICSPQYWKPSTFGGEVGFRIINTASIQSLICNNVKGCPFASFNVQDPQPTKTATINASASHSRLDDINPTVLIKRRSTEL
The experiment in a line: Ex vivo cerebral biodistribution and blocking studies in quinolinic acid lesioned rats. Details: species or system Wistar rats. The text has this: This model consists of a unilateral intrastriatal injection of quinolinic acid to induce excitotoxicity mediated via NMDA receptor activation. This animal model is well known in the literature to produce an inflammatory reaction induced by COX-2 activation in lesioned cerebral parenchyma.
The cerebral biodistribution of [^18F]16 in rats lesioned with QA was expressed as percent of injected dose per gram of tissue (%ID/g) and is shown in Figure 3.
Figure 3. Cerebral biodistribution of [^18F]16, 60 min after i.v. injection in rats, 7 days after focal intrastriatal injection of 150 nmol of quinolinic acid. In the “celecoxib” and “cold 16” groups, animals received an i.v. pre-injection (15 min) of the corresponding compound (3 mg/kg). Results are expressed as % injected dose/g tissue ± SEM. Cx: cortex; Stri: striatum; Hip: hippocampus, Cb: cerebellum.
Blocking in vivo experiments, consisting of a pretreatment with either celecoxib or cold 16 (3 mg/kg) 15 min before injection of the radiotracer, are also presented in Figure 3. […] This confirmed that the low in vivo accumulation observed consisted of nonspecific binding.
Animals. All procedures were conducted in accordance with the requirements of the European Community Council for the care of laboratory animals 2010/63/EU, and approved by the regional ethical committee (Authorization N°2015022011523044). Experiments were carried out on adult Wistar rats (Centre d’Elevage René Janvier, Le Genest-St-Isle, France) weighing 276 ± 19 g at the beginning of the experiments. Animals were housed in groups of two per cage in a temperature and humidity controlled environment (temperature 21 °C ± 1 °C; hygrometry 55% ± 5%), under a 12 h light/dark cycle with food and water available ad libitum.
Surgery: Surgery was performed under isoflurane (AErrane, Baxter, France) anaesthesia (4% for anaesthesia induction and thereafter 2% for its maintenance, in N2O-O2: 70%-30%). The animal's body temperature (36.8 ± 0.5 °C) was monitored with a homoeothermic probe throughout surgery. A unilateral striatal QA lesion was induced in 18 adult male Wistar rats as previously described^14. This procedure results in a well-delineated reproducible excitotoxic lesion to the striatum and ipsilateral cortex.
Ex vivo cerebral biodistribution studies were performed with [^18F]16 in QA lesioned animals at 7 days post lesion (n=6 per group). Rats were i.v. injected (penis vein) with [^18F]16 (2.5 ± 1 MBq) in 300 μL normal saline). […] Animals were sacrificed by decapitation 60 min post [^18F]16 injection. The whole brain was quickly removed and several brain areas (cerebellum, left and right hippocampus, left and right frontal cortex, and left and right striatum), together with the femur, to detect potential in vivo defluorination of the tracer, were dissected and weighed, and their radioactivity was measured using an automated gamma counter (2480 Gamma counter Wizard, Perkin Elmer). The percentage of injected dose per gram tissue (%ID/g) was calculated by comparison with samples to standard dilutions of the initial injected solution.
Statistical analysis: Results were expressed as mean ± standard error of the mean (SEM). Groups of rats (control vs unlabeled compound 16 preinjection, or control vs celecoxib preinjection) were compared using the Mann–Whitney test. Comparisons of binding between ipsi- and contralateral brain structures were performed using the Wilcoxon one-tailed test. The level of significance was p<0.05 (XLStat software®).

In another series the target is T2, human recombinant COX-2 (Homo sapiens, UniProt P35354).
T2 construct: purchased Cayman Chemical 700100, No. 760111
T2 sequence (P35354 18-604): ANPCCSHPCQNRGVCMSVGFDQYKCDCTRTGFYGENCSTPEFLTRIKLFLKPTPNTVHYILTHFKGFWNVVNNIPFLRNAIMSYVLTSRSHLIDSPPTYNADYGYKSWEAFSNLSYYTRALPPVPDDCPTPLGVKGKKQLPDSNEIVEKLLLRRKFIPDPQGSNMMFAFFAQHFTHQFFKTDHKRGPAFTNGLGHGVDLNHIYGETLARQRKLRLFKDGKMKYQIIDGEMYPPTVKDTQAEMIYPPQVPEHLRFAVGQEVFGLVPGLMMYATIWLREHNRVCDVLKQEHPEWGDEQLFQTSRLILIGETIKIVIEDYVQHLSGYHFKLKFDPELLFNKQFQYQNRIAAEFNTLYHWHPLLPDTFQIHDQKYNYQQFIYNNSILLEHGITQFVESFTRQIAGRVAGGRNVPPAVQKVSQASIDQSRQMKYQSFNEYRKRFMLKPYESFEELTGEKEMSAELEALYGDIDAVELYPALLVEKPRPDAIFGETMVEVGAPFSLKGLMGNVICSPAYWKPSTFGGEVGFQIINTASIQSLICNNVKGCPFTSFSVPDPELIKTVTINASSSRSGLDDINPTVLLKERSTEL
Briefly: COX Inhibitor Screening Kit (Cayman), fluorescence-based, COX-2 inhibition. The class given is biochemical. To be noted: for fold decrease in COX-2 activity versus analog: 41 and 42 versus 14, 17 versus 16; for COX-2 activity in words: SAR discussion.

[1] abbreviates: means of triplicates, except DuP-697 (n = 27) and Celecoxib (n = 5).

The term IC50 denotes the concentration that gives 50% inhibition. Usually melting point stands for the temperature of the solid-liquid transition.

Read-outs that look alike come from different tables or passages of the source.

Regarding `NS(=O)(=O)c1ccc(-n2nc3ccccc3c2-c2ccc([18F])cc2)cc1` [[^18F]16, 4-[3-(4-[^18F]Fluorophenyl)indazol-2-yl]benzenesulfonamide], the defluorination in vivo result on COX-2 (from femur uptake, rats) was “negligible defluorination”. On COX-2 (pretreatment with celecoxib or cold 16 (3 mg/kg i.v.) 15 min before radiotracer), the “decrease in accumulation after blocking pretreatment” value was “In none of these experiments was a decrease in [^18F]16 accumulation observed”. Also, the “bone uptake in the femur” value at COX-2 (rats, 60 min after i.v. injection) came out at 0.154 ± 0.032 %ID/g tissue. In addition, the “accumulation in activated brain areas compared to contralateral striatum and cortex” value at COX-2 (rats, 7 days after intrastriatal QA, 60 min after i.v. injection) is given as “no statistically significant difference”. For the same molecule, at COX-2 (rats, preliminary results), the “passage through the blood-brain-barrier (BBB)” value is listed as “low passage”.

In turn, `CS(=O)(=O)c1ccc(-n2nc3ccccc3c2-c2ccc(F)cc2)cc1` [compound 14, 3-(4-Fluorophenyl)-2-(4-methylsulfonylphenyl)indazole] showed a melting point of 173 to 175 °C. The IC50 at human recombinant COX-2 was around 1 µM. Besides, the half-maximal inhibitory concentration (IC50) at human recombinant COX-2 (setting [1]) stood at 1.46 ± 0.5 µM.

As to `CS(=O)(=O)c1ccc(-c2c3ccccc3nn2-c2ccc(F)cc2)cc1` [compound 15, 2-(4-Fluorophenyl)-3-(4-methylsulfonylphenyl)indazole], the melting point is 198 to 200 °C. Further, the IC50 on human recombinant COX-2 was at most 2 µM. Besides, the IC50 on human recombinant COX-2 (setting [1]) came out at 2.3 ± 0.5 µM.

`NS(=O)(=O)c1ccc(-n2nc3ccccc3c2-c2cccc(F)c2)cc1` [compound 17, 4-[3-(3-Fluorophenyl)indazol-2-yl]benzenesulfonamide] had a melting point above 250 °C. For the same molecule, the “fold decrease in COX-2 activity versus analog” value on human recombinant COX-2 stood at 10 fold. In addition, at human recombinant COX-2 (setting [1]), the IC50 is 4.2 ± 0.4 µM.

For `Cc1ccc(-c2c3ccccc3nn2-c2ccc(S(C)(=O)=O)cc2)cc1F` [compound 18, 3-(3-Fluoro-4-methyl-phenyl)-2-(4-methylsulfonylphenyl)indazole], the melting point was 149 to 151 °C. For the same molecule, the half-maximal inhibitory concentration (IC50) at human recombinant COX-2 (setting [1]) stood at 1.03 ± 0.2 µM.

`CCOc1ccc(-c2c3ccccc3nn2-c2ccc(S(C)(=O)=O)cc2)cc1F` [compound 19, 3-(4-Ethoxy-3-fluoro-phenyl)-2-(4-methylsulfonylphenyl)indazole] had a melting point of 138 to 140 °C. Moreover, the IC50 on human recombinant COX-2 (setting [1]) is above 25 µM.

Molecule `CCOc1ccc(-c2c3ccccc3nn2-c2ccc(S(C)(=O)=O)cc2)cc1C(F)(F)F` [compound 20, 3-[4-Ethoxy-3-(trifluoromethyl)phenyl]-2-(4-methylsulfonylphenyl)indazole] registered a melting point of 196 to 198 °C.

Molecule `CS(=O)(=O)c1ccc(-n2nc3ccccc3c2-c2ccc(Cl)c(C(F)(F)F)c2)cc1` [compound 21, 3-[4-Chloro-3-(trifluoromethyl)phenyl]-2-(4-methylsulfonylphenyl)indazole] displayed a melting point of 197 to 199 °C. Also, the IC50 on human recombinant COX-2 (setting [1]) came to 1.1 ± 0.3 µM.

`CS(=O)(=O)c1ccc(-n2nc3ccccc3c2-c2ccc(F)nc2)cc1` [compound 22, 3-(6-Fluoro-3-pyridyl)-2-(4-methylsulfonylphenyl)indazole] showed a melting point of 216 to 218 °C. On human recombinant COX-2 (setting [1]), the half-inhibitory concentration (IC50) was above 25 µM.

`CS(=O)(=O)c1ccc(-n2nc3ccccc3c2-c2ccc(F)nc2F)cc1` [compound 23, 3-(2,6-Difluoro-3-pyridyl)-2-(4-methylsulfonylphenyl)indazole] yielded a melting point of 84 to 86 °C. Also, on human recombinant COX-2 (setting [1]), the concentration for half-maximal inhibition (IC50) was above 25 µM.

`COc1ccc(-c2c3ccccc3nn2-c2ccc(S(C)(=O)=O)cc2)cn1` [compound 24, 3-(6-Methoxy-3-pyridyl)-2-(4-methylsulfonylphenyl)indazole]: the melting point was 146 to 148 °C. Besides, the “COX-2 activity in words” value on human recombinant COX-2 is “moderate activity”. Further, the IC50 on human recombinant COX-2 (setting [1]) is 2.98 ± 0.4 µM.

Consider `COc1cncc(-c2c3ccccc3nn2-c2ccc(S(C)(=O)=O)cc2)c1` [compound 25, 3-(5-Methoxy-3-pyridyl)-2-(4-methylsulfonylphenyl)indazole], for which the melting point was 215 to 217 °C. In addition, on human recombinant COX-2 (setting [1]), the IC50 was above 25 µM.

In the case of `CCOc1ccc(-c2c3ccccc3nn2-c2ccc(S(C)(=O)=O)cc2)cn1` [compound 26, 3-(6-Ethoxy-3-pyridyl)-2-(4-methylsulfonylphenyl)indazole], the melting point was 147 to 149 °C. In addition, the “COX-2 activity in words” value on human recombinant COX-2 is reported as “moderate activity”. In addition, at human recombinant COX-2 (setting [1]), the IC50 amounted to 4.46 ± 0.4 µM.

On to `CCOc1ncc(-c2c3ccccc3nn2-c2ccc(S(C)(=O)=O)cc2)cn1` [compound 27, 3-(2-Ethoxypyrimidin-5-yl)-2-(4-methylsulfonylphenyl)indazole], for which the melting point was 217 to 219 °C. On human recombinant COX-2, the “COX-2 activity in words” value is “totally inactive”. The concentration for half-maximal inhibition (IC50) on human recombinant COX-2 (setting [1]) was above 25 µM.

Take `CS(=O)(=O)c1ccc(-n2nc3cccnc3c2-c2ccc(F)cc2)cc1` [compound 39, 3-(4-Fluorophenyl)-2-(4-methylsulfonylphenyl)pyrazolo[4,3-b]pyridine]: the melting point was 219 to 221 °C. Besides, at human recombinant COX-2 (setting [1]), the IC50 was above 25 µM.

Consider `CS(=O)(=O)c1ccc(-n2nc3cnccc3c2-c2ccc(F)cc2)cc1` [compound 40, 3-(4-Fluorophenyl)-2-(4-methylsulfonylphenyl)pyrazolo[3,4-c]pyridine], for which the IC50 on human recombinant COX-2 (setting [1]) was determined as 4.42 ± 0.6 µM.

For `CS(=O)(=O)c1ccc(-n2nc3ncccc3c2-c2ccc(F)cc2)cc1` [compound 41, 3-(4-Fluorophenyl)-2-(4-methylsulfonylphenyl)pyrazolo[3,4-b]pyridine], on human recombinant COX-2, the “fold decrease in COX-2 activity versus analog” value came to 4 fold. In addition, the IC50 at human recombinant COX-2 (setting [1]) was 4.75 ± 0.6 µM.

In turn, `NS(=O)(=O)c1ccc(-n2nc3ccccc3c2-c2ccc([N+](=O)[O-])cc2)cc1` [compound 42, 4-[3-(4-Nitrophenyl)indazol-2-yl]benzenesulfonamide] gave a melting point of 221 to 223 °C. For the same molecule, at human recombinant COX-2, the “fold decrease in COX-2 activity versus analog” value was 4 fold.
